From patent publication US20240197900A1, “DISACCHARIDE LINKER, DISACCHARIDE-SMALL MOLECULE DRUG CONJUGATE AND SUGAR CHAIN FIXED-POINT ANTIBODY-DRUG CONJUGATE, AND PREPARATION METHOD THEREFOR AND USE THEREOF” (priority 2021, published 2024)

Biological target: Endo-S2 (Streptococcus pyogenes serotype M49, UniProt T1WGN1)
Test: Screening of sugar substrates: transfer of oxazoline substrates to deglycosylated antibody by Endo-S2
Assay type: biochemical
Conditions: substrate 1.5 mM, (Fuc α1,6)GlcNAc-Herceptin 5 mg/mL, Endo-S2 0.2 mg/mL, 3 h; for recognition by / transfer activity of Endo-S2 (in words): 30° C., FIG. 1B
Description: Different sugar substrates (1 equivalent, including monosaccharide, disaccharide and trisaccharide structures) were weighed and dissolved in 50 mM PB, pH 7.0 buffer, CDMBI (5 equivalents) was added to the above system, mixed well and cooled to 0° C. Potassium phosphate (15 eq) was added, the final concentration of the sugar substrates in the reaction system was 10 mM, and the reaction was carried out at 0° C. for 2 h. Plenty of precipitate was observed, which was removed by centrifugation. The supernatant was oxazoline substrates G1, G12, G15-G20 containing salts, which were directly used for the next step of screening.
Oxazoline substrates (G1, G12, G15-G20), deglycosylated antibody (Fuc α1.6) GlcNAc-Herceptin and endoglycosidase Endo-S2 were sequentially added to 50 mM Tris-HCl, pH 7.2 buffer, such that the final concentrations of each were 1.5 mM, 5 mg/mL, and 0.2 mg/mL, respectively, which was incubated at 30° C. for 3 h for detection by mass spectrometry. At the same time, a control group without endoglycosidase was set to eliminate the influence of non-enzymatic reactions.

Endo-S2, sequence (T1WGN1 37-843): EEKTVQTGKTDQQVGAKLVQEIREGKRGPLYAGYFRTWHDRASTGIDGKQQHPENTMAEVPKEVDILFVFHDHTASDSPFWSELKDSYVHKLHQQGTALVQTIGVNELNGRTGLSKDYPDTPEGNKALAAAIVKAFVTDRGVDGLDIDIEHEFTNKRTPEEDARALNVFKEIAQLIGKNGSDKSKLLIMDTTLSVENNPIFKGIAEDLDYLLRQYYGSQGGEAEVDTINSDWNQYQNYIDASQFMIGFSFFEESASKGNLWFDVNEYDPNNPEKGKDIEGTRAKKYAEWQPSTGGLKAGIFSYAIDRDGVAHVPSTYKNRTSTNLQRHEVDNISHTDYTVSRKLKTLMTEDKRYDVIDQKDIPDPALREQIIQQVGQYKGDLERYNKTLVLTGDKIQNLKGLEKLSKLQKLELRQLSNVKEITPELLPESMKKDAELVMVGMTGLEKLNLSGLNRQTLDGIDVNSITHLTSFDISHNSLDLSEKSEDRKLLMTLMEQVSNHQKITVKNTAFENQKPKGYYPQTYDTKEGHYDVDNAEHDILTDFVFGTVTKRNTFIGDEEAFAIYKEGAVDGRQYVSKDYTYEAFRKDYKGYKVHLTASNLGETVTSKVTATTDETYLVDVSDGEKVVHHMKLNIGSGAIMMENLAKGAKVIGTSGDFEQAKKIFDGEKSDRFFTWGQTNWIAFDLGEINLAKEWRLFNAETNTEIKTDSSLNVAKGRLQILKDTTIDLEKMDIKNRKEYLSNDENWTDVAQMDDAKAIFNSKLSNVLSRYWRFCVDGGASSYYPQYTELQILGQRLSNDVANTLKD

SMILES | transfer efficiency to the deglycosylated antibody (Tris-HCl pH 7.2, 30° C., mass spectrometry) [%] | recognition by / transfer activity of Endo-S2 (in words)
CC1=NC2[C@@H](O1)OC(CO)[C@@H](O[C@@H]1OC(CO)[C@H](O)[C@H](O)C1O)[C@@H]2O (stereo partly drawn) [G1] | 68 | –
CC(=O)N[C@H]1C([C@H](O)[C@H](O)CO)O[C@@](OCC2O[C@@H](O[C@@H]3C(CO)O[C@@H]4OC(C)=NC4[C@H]3O)C(O)[C@@H](O)[C@H]2O)(C(=O)O)C[C@H]1O (stereo partly drawn) [G12] | – | well recognized
CC1=NC2C(O[C@@H]3OC(C)[C@@H](O)C(O)C3O)[C@H](O[C@@H]3OC(CO)[C@H](O)C(O)C3O)C(CO)O[C@@H]2O1 (stereo partly drawn) [G20] | – | greatly reduced
